According to the CheMixHub viscosity set:
± gives the uncertainty stated by the source.

Assay: xn = mol fraction of the nth substance listed

C=Cc1ccccc1 + CCO
viscosity [mPa·s], 101.33 kPa
Conditions	x1 = 0.0997	x1 = 0.1994	x1 = 0.3013	x1 = 0.3987	x1 = 0.5004	x1 = 0.6011	x1 = 0.7001	x1 = 0.7976	x1 = 0.8989
298.15 K	1.01 ± 0.05	0.932 ± 0.046	0.849 ± 0.043	0.798 ± 0.041	0.764 ± 0.039	0.747 ± 0.038	0.737 ± 0.038	0.731 ± 0.038	0.72 ± 0.037
303.15 K	0.93 ± 0.046	0.861 ± 0.043	0.777 ± 0.04	0.735 ± 0.038	0.711 ± 0.037	0.701 ± 0.037	0.693 ± 0.036	0.688 ± 0.036	0.679 ± 0.036
308.15 K	0.848 ± 0.043	0.786 ± 0.04	0.711 ± 0.037	0.681 ± 0.036	0.661 ± 0.035	0.652 ± 0.034	0.645 ± 0.034	0.64 ± 0.034	0.634 ± 0.034

CC#N + CCO
viscosity [mPa·s]
Conditions	293.15 K	298.15 K	303.15 K	308.15 K	313.15 K
101 kPa, x1 = 0.0898	–	0.87 ± 0.01	0.736 ± 0.009	0.632 ± 0.007	–
101 kPa, x1 = 0.187	–	0.71 ± 0.009	0.606 ± 0.007	0.523 ± 0.006	–
101 kPa, x1 = 0.2973	–	0.594 ± 0.007	0.518 ± 0.006	0.454 ± 0.005	–
101 kPa, x1 = 0.396	–	0.517 ± 0.006	0.455 ± 0.005	0.405 ± 0.005	–
101 kPa, x1 = 0.4843	–	0.463 ± 0.005	0.409 ± 0.005	0.364 ± 0.004	–
101 kPa, x1 = 0.5987	–	0.416 ± 0.005	0.37 ± 0.004	0.334 ± 0.004	–
101 kPa, x1 = 0.7114	–	0.376 ± 0.004	0.342 ± 0.004	0.309 ± 0.004	–
101 kPa, x1 = 0.8072	–	0.357 ± 0.004	0.325 ± 0.004	0.298 ± 0.004	–
101 kPa, x1 = 0.9139	–	0.345 ± 0.004	0.314 ± 0.004	0.29 ± 0.004	–
101.3 kPa, x1 = 0.1107	–	0.85 ± 0.022	0.779 ± 0.02	0.715 ± 0.019	0.656 ± 0.017
101.3 kPa, x1 = 0.2192	–	0.693 ± 0.018	0.642 ± 0.017	0.589 ± 0.016	0.542 ± 0.015
101.3 kPa, x1 = 0.3249	–	0.584 ± 0.016	0.545 ± 0.015	0.499 ± 0.014	0.467 ± 0.013
101.3 kPa, x1 = 0.4279	–	0.506 ± 0.014	0.473 ± 0.013	0.444 ± 0.013	0.417 ± 0.012
101.3 kPa, x1 = 0.5288	–	0.458 ± 0.013	0.428 ± 0.012	0.405 ± 0.012	0.38 ± 0.011
101.3 kPa, x1 = 0.6267	–	0.414 ± 0.012	0.391 ± 0.012	0.377 ± 0.011	0.352 ± 0.011
101.3 kPa, x1 = 0.7236	–	0.392 ± 0.012	0.366 ± 0.011	0.347 ± 0.011	0.331 ± 0.01
101.3 kPa, x1 = 0.8179	–	0.37 ± 0.011	0.349 ± 0.011	0.333 ± 0.01	0.316 ± 0.01
101.3 kPa, x1 = 0.9099	–	0.354 ± 0.011	0.336 ± 0.01	0.317 ± 0.01	0.301 ± 0.01
101.33 kPa, x1 = 0.04	1.12 ± 0.01	–	–	–	–
101.33 kPa, x1 = 0.1	0.9979 ± 0.0093	–	–	–	–
101.33 kPa, x1 = 0.12	0.939 ± 0.0088	–	–	–	–
101.33 kPa, x1 = 0.17	0.9065 ± 0.0084	–	–	–	–
101.33 kPa, x1 = 0.28	0.7033 ± 0.0066	–	–	–	–
101.33 kPa, x1 = 0.33	0.6415 ± 0.006	–	–	–	–
101.33 kPa, x1 = 0.43	0.5585 ± 0.0053	–	–	–	–
101.33 kPa, x1 = 0.67	0.4418 ± 0.0042	–	–	–	–
101.33 kPa, x1 = 0.83	0.4001 ± 0.0039	–	–	–	–
